Source: patent US8889874B2, “Imidazolone-chalcone derivatives as potential anticancer agent and process for the preparation thereof” (Council of Scientific and Industrial Research, priority 2010, dated 2014)
Read-outs that look alike come from different tables or passages of the source.

Legend:
Experiment in all cases: NCI anticancer screen, SRB assay, 48 h
Assay type in all cases: cell-based, human
[1] = system: MCF7 (breast); conditions: Homo sapiens
Procedure, shortened: (§1)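 Sulforhodamine B protein assay read cell growth after 48 h of continuous compound exposure. Dose-response curves per cell line used at least five 10-fold-diluted concentrations, within a panel of fifty-three human lines from nine tumour types.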

[2] = system: HCT-15 (colon); conditions: Homo sapiens
Procedure, shortened: as §1

[3] = system: 786-0 (renal); conditions: Homo sapiens
Procedure, shortened: as §1

[4] = system: EKVX (non-small cell lung); conditions: Homo sapiens
Procedure, shortened: as §1

[5] = system: RPMI-8226 (leukemia cell line); conditions: Homo sapiens
Procedure, shortened: as §1

[6] = system: SW-620 (colon); conditions: Homo sapiens
Procedure, shortened: as §1

[7] = system: OVCAR-5 (ovarian); conditions: Homo sapiens
Procedure, shortened: as §1

[8] = system: TK-10 (renal); conditions: Homo sapiens
Procedure, shortened: as §1

[9] = system: OVCAR-8 (ovarian); conditions: Homo sapiens
Procedure, shortened: as §1

[10] = system: MALME-3M (melanoma); conditions: Homo sapiens
Procedure, shortened: as §1

[11] = system: CAKI-1 (renal); conditions: Homo sapiens
Procedure, shortened: as §1

[12] = system: OVCAR-4 (ovarian); conditions: Homo sapiens
Procedure, shortened: as §1

[13] = system: UACC-62 (melanoma); conditions: Homo sapiens
Procedure, shortened: as §1

[14] = system: NCI-H322M (non-small cell lung); conditions: Homo sapiens
Procedure, shortened: as §1

[15] = system: K-562 (leukemia cell line); conditions: Homo sapiens
Procedure, shortened: as §1

[16] = system: U251 (CNS); conditions: Homo sapiens
Procedure, shortened: as §1

[17] = system: NCI/ADR-RES (ovarian); conditions: Homo sapiens, NCI/ADR-RES
Procedure, shortened: as §1

[18] = system: SK-MEL-5 (melanoma); conditions: Homo sapiens
Procedure, shortened: as §1

[19] = system: SF-268 (CNS); conditions: Homo sapiens
Procedure, shortened: as §1

[20] = system: NCI-H226 (non-small cell lung); conditions: Homo sapiens
Procedure, shortened: as §1

[21] = system: HOP-62 (non-small cell lung); conditions: Homo sapiens
Procedure, shortened: as §1

[22] = system: RXF 393 (renal); conditions: Homo sapiens
Procedure, shortened: as §1

[23] = system: UACC-257 (melanoma); conditions: Homo sapiens
Procedure, shortened: as §1

[24] = system: UO-31 (renal); conditions: Homo sapiens
Procedure, shortened: as §1

[25] = system: NCI-H522 (non-small cell lung); conditions: Homo sapiens
Procedure, shortened: as §1

[26] = system: SK-OV-3 (ovarian); conditions: Homo sapiens
Procedure, shortened: as §1

[27] = system: HCT-116 (colon); conditions: Homo sapiens
Procedure, shortened: as §1

[28] = system: SNB-19 (CNS); conditions: Homo sapiens
Procedure, shortened: as §1

[29] = system: MDA-MB-435 (melanoma); conditions: Homo sapiens
Procedure, shortened: as §1

[30] = 48 h exposure, SRB, read-out: GI50
[31] = read-out: pGI50 (-log of molar concentration causing 50% inhibition of net cell growth) (converted)
[32] = Malme-3M, read-out: pGI50 (-log of molar concentration causing 50% inhibition of net cell growth) (converted)
[33] = MALME-3M, 48 h exposure, SRB, read-out: GI50
[34] = K562, 48 h exposure, SRB, read-out: GI50
[35] = K562, read-out: pGI50 (-log of molar concentration causing 50% inhibition of net cell growth) (converted)
[36] = U-251, 48 h exposure, SRB, read-out: GI50
[37] = U-251, read-out: pGI50 (-log of molar concentration causing 50% inhibition of net cell growth) (converted)
[38] = NCl/ADR-RES, 48 h exposure, SRB, read-out: GI50
[39] = RXF 393, 48 h exposure, SRB, read-out: GI50
[40] = RXF-393, read-out: pGI50 (-log of molar concentration causing 50% inhibition of net cell growth) (converted)

`COc1ccc(-c2cn(-c3cccc(C(=O)/C=C/c4ccc(O)c(OC)c4)c3)c(=O)[nH]2)cc1` [3b, 1-3-[(E)-3-(4-hydroxy-3-methoxyphenyl)-2-propenoyl]phenyl-4-(4-methoxyphenyl)-2,3-dihydro-1H-2-imidazolone] was tested, and the GI50 [1, 30] was 3.18 µM, the GI50 [1, 31] was 3.16 µM and the GI50 [2, 30] was 3.15 µM. For the same compound, the GI50 [2, 31] was 3.16 µM, the GI50 [3, 30] was 4.53 µM and the GI50 [3, 31] was 4.57 µM. It also gave a GI50 [4, 30] of 13.4 µM, a GI50 [4, 31] of 13.5 µM and a GI50 [5, 30] of 1.35 µM. For the same compound, the GI50 [5, 31] was 1.35 µM, the GI50 [6, 30] was 2.5 µM and the GI50 [6, 31] was 2.51 µM. It also gave a GI50 [7, 30] of 3.38 µM, a GI50 [7, 31] of 3.39 µM and a GI50 [8, 30] of 6.08 µM. For the same compound, the GI50 [8, 31] was 6.03 µM, the GI50 [9, 30] was 4.97 µM and the GI50 [9, 31] was 5.01 µM. For the same compound, the GI50 [10, 32] was 4.47 µM, the GI50 [10, 33] was 4.42 µM and the GI50 [11, 30] was 4.99 µM. The GI50 [11, 31] was 5.01 µM, the GI50 [12, 30] was 6.08 µM and the GI50 [12, 31] was 6.03 µM. For the same compound, the GI50 [13, 30] was 3.96 µM, the GI50 [13, 31] was 3.98 µM and the GI50 [14, 30] was 8.2 µM. For the same compound, the GI50 [14, 31] was 8.13 µM, the GI50 [15, 34] was 2.35 µM and the GI50 [15, 35] was 2.34 µM. The GI50 [16, 36] was 3.45 µM, the GI50 [16, 37] was 3.47 µM and the GI50 [17, 38] was 2.56 µM. For the same compound, the GI50 [17, 31] was 2.57 µM, the GI50 [18, 30] was 2.63 µM and the GI50 [18, 31] was 2.63 µM. The GI50 [19, 30] was 3.4 µM, the GI50 [19, 31] was 3.39 µM and the GI50 [20, 30] was 4.1 µM. The GI50 [20, 31] was 4.07 µM, the GI50 [21, 30] was 5.15 µM and the GI50 [21, 31] was 5.13 µM. For the same compound, the GI50 [22, 39] was 5.85 µM, the GI50 [22, 40] was 5.89 µM and the GI50 [23, 30] was 13.3 µM. The GI50 [23, 31] was 13.2 µM, the GI50 [24, 30] was 5.19 µM and the GI50 [24, 31] was 5.25 µM. The GI50 [25, 30] was 3.48 µM, the GI50 [25, 31] was 3.47 µM and the GI50 [26, 30] was 4.77 µM. It also gave a GI50 [26, 31] of 4.79 µM, a GI50 [27, 30] of 1.93 µM and a GI50 [27, 31] of 1.95 µM. For the same compound, the GI50 [28, 30] was 5.84 µM, the GI50 [28, 31] was 5.89 µM and the GI50 [29, 30] was 3.35 µM. For the same compound, the GI50 [29, 31] was 3.39 µM.

`COc1cc(/C=C/C(=O)c2cccc(-n3cc(-c4ccc(Cl)cc4)[nH]c3=O)c2)ccc1O` [3f, 4-(4-chlorophenyl)-1-3-[(E)-3-(4-hydroxy-3-methoxyphenyl)-2-propenoyl]phenyl-2,3-dihydro-1H-2-imidazolone] showed a GI50 [1, 30] of 2.3 µM, a GI50 [1, 31] of 2.29 µM and a GI50 [2, 30] of 1.8 µM. For the same compound, the GI50 [2, 31] was 1.82 µM, the GI50 [3, 30] was 2.07 µM and the GI50 [3, 31] was 2.09 µM. It also gave a GI50 [4, 30] of 9.61 µM, a GI50 [4, 31] of 9.55 µM and a GI50 [5, 30] of 1.33 µM. It also gave a GI50 [5, 31] of 1.32 µM, a GI50 [6, 30] of 2 µM and a GI50 [6, 31] of 2 µM. For the same compound, the GI50 [7, 30] was 2 µM, the GI50 [7, 31] was 2 µM and the GI50 [8, 30] was 4.67 µM. For the same compound, the GI50 [8, 31] was 4.68 µM, the GI50 [9, 30] was 4.18 µM and the GI50 [9, 31] was 4.17 µM. It also gave a GI50 [10, 32] of 3.09 µM, a GI50 [10, 33] of 3.06 µM and a GI50 [11, 30] of 2.64 µM. The GI50 [11, 31] was 2.63 µM, the GI50 [12, 30] was 4.64 µM and the GI50 [12, 31] was 4.68 µM. The GI50 [13, 30] was 2.74 µM, the GI50 [13, 31] was 2.75 µM and the GI50 [14, 30] was 4.58 µM. The GI50 [14, 31] was 4.57 µM, the GI50 [15, 34] was 1.42 µM and the GI50 [15, 35] was 1.41 µM. It also gave a GI50 [16, 36] of 2.23 µM, a GI50 [16, 37] of 2.24 µM and a GI50 [17, 38] of 2.28 µM. For the same compound, the GI50 [17, 31] was 2.29 µM, the GI50 [18, 30] was 1.8 µM and the GI50 [18, 31] was 1.82 µM. For the same compound, the GI50 [19, 30] was 2.5 µM, the GI50 [19, 31] was 2.51 µM and the GI50 [20, 30] was 2.77 µM. It also gave a GI50 [20, 31] of 2.75 µM, a GI50 [21, 30] of 2.84 µM and a GI50 [21, 31] of 2.82 µM. It also gave a GI50 [22, 39] of 6.4 µM, a GI50 [22, 40] of 6.46 µM and a GI50 [23, 30] of 8.69 µM. For the same compound, the GI50 [23, 31] was 8.71 µM, the GI50 [24, 30] was 1.67 µM and the GI50 [24, 31] was 1.66 µM. For the same compound, the GI50 [25, 30] was 2.36 µM, the GI50 [25, 31] was 2.34 µM and the GI50 [26, 30] was 3.19 µM. For the same compound, the GI50 [26, 31] was 3.16 µM, the GI50 [27, 30] was 1.46 µM and the GI50 [27, 31] was 1.45 µM. It also gave a GI50 [28, 30] of 3.17 µM, a GI50 [28, 31] of 3.16 µM and a GI50 [29, 30] of 2.25 µM. For the same compound, the GI50 [29, 31] was 2.24 µM.
